# From PMC8473290 (Viruses, 2021)
# Peptide text beside a SMILES is read from it.
# Assays:
# HSV-2 R6 = assay: Inhibition of cell-free HSV-2 infection of HFFs; assay type: cell-based, herpes simplex virus 2; settings: 1 h preincubation, MOI 1, fixed 6 h p.i.
# HSV-1 R10.2 = assay: Inhibition of cell-free HSV-1 infection of HFFs; assay type: cell-based, herpes simplex virus 1; settings: 1 h preincubation, MOI 1, fixed 6 h p.i.
# [1] = system: HCMV strain Merlin-pAL1502; assay: Cell-associated focal spread of Merlin-pAL1502 in HFFs; assay type: cell-based, Human cytomegalovirus
# [2] = system: HCMV strain Merlin-pAL1502; assay: Reversibility of inhibition of cell-associated spread after peptide removal; assay type: cell-based, Human cytomegalovirus
# TB40-BAC4 = assay: Inhibition of cell-free HCMV infection of HFFs (TB40-BAC4); assay type: cell-based, Human cytomegalovirus
# [3] = system: recent cell-associated clinical HCMV isolates; assay: Cell-associated focal spread of recent clinical HCMV isolates in HFF co-culture; assay type: cell-based, Human cytomegalovirus; settings: 60 µmol/L, added 1 d p.i., fixed 7 d p.i.
# [4] = system: Merlin-pAL1502-UL32EGFP-UL100mCherry; assay: Single particle analysis of virion transfer with dual fluorescent Merlin; assay type: cell-based, Human cytomegalovirus; settings: 125 µmol/L, added 1 d p.i.
structure (smiles),measurement,setting,value
CC[C@H](C)[C@H](NC(=O)[C@H](Cc1ccc(O)cc1)NC(=O)[C@@H](NC(=O)[C@H](Cc1c[nH]cn1)NC(=O)[C@H](CCCNC(=N)N)NC(=O)CN)[C@@H](C)CC)C(=O)N[C@@H](Cc1ccc(O)cc1)C(=O)N[C@H](C(=O)N1CCC[C@H]1C(=O)N[C@@H](CC(=O)O)C(=O)N1CCC[C@H]1C(=O)N[C@@H](CC(=O)O)C(=O)N[C@H](C(=O)N[C@@H](C)C(=O)N[C@@H](Cc1ccccc1)C(=O)N[C@H](C(=O)N1CCC[C@H]1C(=O)N[C@@H](CC(C)C)C(=O)NCC(=O)N[C@@H](CCSC)C(=O)N[C@H](C(=O)N[C@@H](CC(=O)O)C(=O)N[C@@H](Cc1ccc(O)cc1)C(=O)N[C@@H](CC(C)C)C(=O)N[C@H](C(=O)N[C@H](C(=O)N[C@H](C(=O)N[C@@H](CCC(=O)O)C(=O)N[C@@H](CC(=O)O)C(=O)N[C@@H](CC(=O)O)C(=O)O)C(C)C)[C@@H](C)CC)C(C)C)[C@@H](C)O)C(C)C)C(C)C)C(C)C [GD30] (H-GRHIYIYVPDPDVAFVPLGMTDYLVIVEDD-OH; N-terminus and C-terminus assumed),Extent of inhibition of cell-free virus,HSV-2 R6,completely
same,Extent of inhibition of cell-free virus,HSV-1 R10.2,completely
same,Reduction of focal growth compared with GT40,"[1]; 60 µmol/L, added 1 d p.i., fixed 7 d p.i.",to a similar extent but not more than GT40
same,Inhibition of cell-associated spread,"[1]; 125 µmol/L, applied 42 h p.i., MOI 0.005",almost completely inhibits
same,Focus size under permanent treatment,[2]; 125 µmol/L from 42 h p.i. until fixation at day 8,almost exclusively single infected cells
same,Reversibility of the inhibitory effect after peptide removal,"[2]; 125 µmol/L from 42 h to 5 d p.i., then 3 d without peptide",completely reversible
same,Mean focus size after intermittent treatment,"[2]; 125 µmol/L from 42 h to 5 d p.i., withdrawn, fixed 8 d p.i., untreated control up to 50",around 15 infected cells per focus
same,Antiviral effect against cell-free virus,"TB40-BAC4; 2 h preincubation with virus, MOI 1, fixed next day",effective against cell-free virus
same,Hill slope of the dose-response curve,"TB40-BAC4; cell-free virus, 2 h preincubation, MOI 1",−1.67
same,Reduction of focal growth compared with GT40,[3],to a similar extent but not more than GT40
same,Reduction of the total number of particles transferred,"[4]; MOI 0.05, versus DMSO control, 10 frames",78%
same,Percentage of naked capsids,"[4]; MOI 0.05, untreated control 86%",7%
